From patent US20110200165A1, “CONTRAST AGENT-REINFORCED RADIOTHERAPY HAVING HIGH-OUTPUT TUBES” (BAYER SCHERING PHARMA AKTIENGESELLSCHAFT, priority 2008, published 2011)

Assays:
[1] = system: glioblastoma (GS9L) rat tumor model; assay: Contrast medium-enhanced CT radiation therapy, survival, glioblastoma (GS9L) rat tumor model; type: in vivo; conditions: 2 g of iodine/kg i.v. within 6 minutes before each of 6 sessions of 3 Gy, 140 kV, total 18 Gy; versus irradiation with common salt and untreated
Source text: The therapeutic effectiveness of the contrast medium-enhanced radiation therapy was examined on a glioblastoma (GS9L) rat tumor model. To this end, male Fisher rats were inoculated stereotactically with 5 […]I of cell suspension (10^6 glioblastoma 9L cells) in the brain. After 8 days, the tumor growth was ensured by means of MRT, and the animals were divided into 3 groups (n=5). The animals of group 1 received no therapy and were used as a control. Animals of groups 2 and 3 passed through a CT radiation therapy with a total dose of 18 Gy at a tube voltage of 140 kV (Volume Zoom, Siemens Medical Solutions, Erlangen). Six therapy sessions were performed (2 per day at an interval of 4 hours), and one dose of 3 Gy was administered to the animals in each case. The radiation was limited to the tumor using the layer collimators and introduced within 90 s, which corresponds to a tumor-dose rate of 2 Gy/minute. Before each therapy session, a dimeric contrast medium (Isovist 300, Bayer Schering Pharma, Berlin) in a dose of 2 g of iodine/kg of body weight was administered to the animals of group 2. The latter was administered intravenously, within 6 minutes. With this application scheme, a maximum iodine-tumor concentration in a short plateau phase of between 6 and 7 minutes is achieved (FIG. 14). […]

[2] = system: glioblastoma (GS9L) rat tumor model; assay: Contrast medium-enhanced radiation therapy compared with linear accelerator, glioblastoma (GS9L) rat tumor model; type: in vivo
Experimental: For examination of the therapeutic effectiveness of the contrast medium-enhanced radiation therapy with a high dose rate, the latter was compared to the therapeutic standard, i.e., a radiation therapy on the linear accelerator. To this end, a glioblastoma (GS9L) rat tumor model was used. Male Fischer rats were stereotactially inoculated with 5 µl of cell suspension (10^6 glioblastoma 9L cells) in the brain. After 8 days, the to growth was ensured by means of MRT, and the animals were divided into 3 groups. The animals of group 1 (n=6) obtained no therapy and were used as a control. Animals of group 2 (n=5) were treated on the linear accelerator (Novalis, Brain Lab AG, Feldkirchen) at 2 MV with a total dose of 18 Gy. This dose was administered to 3 in fractions of 6 Gy each on days 9, 10 and 11 after inoculation. The animals of group 3 passed through a contrast medium-enhanced radiation therapy on days 9-11 with a total dose of 18 Gy and a tube voltage of 140 kV (Volume Zoom, Siemens Medical Solutions, Erlangen). Six therapy sessions were carried out (2 per day at 4-hour intervals) and in each case a dose of 3 Gy was administered to the animals within 90 seconds. This corresponds to a tumor-dose rate of 2 Gy/minute. […]

[3] = rat, in vivo
Source text: The contrast medium can also be intraarterially introduced into the vessel as in interventional angiography. To this end, a catheter is positioned in front of the outlet of the vascular section of interest. In the GS9L rat tumor model, the contrast medium concentration in the tumor was studied at a low flow rate for an intraarterial administration in 4 animals. To this end, the carotid artery was catheterized on day 10 after inoculation of the tumor cells, and a cannula was placed in the internal carotid artery (19). Via the latter, Isovist 300 was administered in a dosage of 2 g of iodine within 6 minutes. CT images of the rat head were made at the points in time 0, 1, 2, . . . 15 and 20 minutes after the beginning of the injection. For evaluation, the DynEva equipment software was used. The mean absorption in the tumor, adjacent healthy brain areas and in adjacent skin areas was determined for each point in time and converted into the corresponding iodine concentration. […] Relative to an intravenous administration, the plateau phase is extended to 60-120 seconds, and the drop in iodine concentration is slower. During the contrast medium administration phase, iodine accumulates analogously in the tumor and reaches a plateau after the end of the latter. […] In the healthy brain tissue, only very low iodine concentrations<0.5 mg/ml were observed.

## CN(C(=O)CC(=O)N(C)c1c(I)c(C(=O)NC(CO)C(O)CO)c(I)c(C(=O)NC(CO)C(O)CO)c1I)c1c(I)c(C(=O)NC(CO)C(O)CO)c(I)c(C(=O)NC(CO)C(O)CO)c1I (stereo not shown) [Isovist 300, Iotrolan]
[1]
  survival after contrast medium-enhanced radiation therapy: considerable therapeutic advantage
[2]; 2 g of iodine/kg i.v. within 6 minutes before each of 6 sessions of 3 Gy within 90 seconds, 140 kV, total 18 Gy
  animals showing a significant therapy effect (survival time): 2 of 6
[2]; same total dose 18 Gy, linear accelerator 2 MV, 3 fractions of 6 Gy
  therapeutic result relative to standard therapy on the linear accelerator: therapeutic advantage
[3]
  time of tumor iodine concentration maximum with plateau after the end of administration: about 1 minute
